Earlier results on 17 compounds are cited in patent publication US20240316118A1, “ANTIVIRAL NASAL SPRAY FLAVONOIDS?BEE PROPOLIS” (priority 2022, published 2024).

In one series the test system is Rotavirus virions. The settings on record: Rhesus Rotavirus, Ref. [20].
A further series has as its system HCV replicase. As to conditions: Ref. [19].
Another series has as its target NS3 protease (Hepatitis C virus genotype 1a, UniProt P26664). As to conditions: for Molecular Mechanisms: HCV replication: NS3 protease.
For another series, the system named is DENV-2 virions. As to conditions: DENV-2, Ref. [40].
For the next series, the target named is NS1 (Dengue virus type 2, UniProt P29990). As to conditions: Ref. [23] (molecular docking).
NS1, sequence (P29990 776-1127 limits assumed): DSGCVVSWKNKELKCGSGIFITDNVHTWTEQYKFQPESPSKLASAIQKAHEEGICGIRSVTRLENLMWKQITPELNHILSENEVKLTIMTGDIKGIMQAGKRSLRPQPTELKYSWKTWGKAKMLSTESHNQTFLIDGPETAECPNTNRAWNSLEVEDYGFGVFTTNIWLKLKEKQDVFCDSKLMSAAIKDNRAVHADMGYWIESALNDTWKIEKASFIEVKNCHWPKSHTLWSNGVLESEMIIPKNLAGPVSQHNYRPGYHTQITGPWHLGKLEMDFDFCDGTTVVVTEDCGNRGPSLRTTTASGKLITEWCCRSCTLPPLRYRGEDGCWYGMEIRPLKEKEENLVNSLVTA
The test system of another series is NOX4. As to conditions: NOX4, Ref. [24].
A further series concerns the target HIV protease (Human immunodeficiency virus type 1 group M subtype B, UniProt P04585). The settings on record: Ref. [27] (computational).
A further series addresses NS5B polymerase (Hepatitis C virus genotype 1a, UniProt P26664). As to conditions: for Molecular Mechanisms: HCV replication: NS5B polymerase, Refs. [33], [40].
In another series the test system is SARS-CoV. The settings on record: Vero E6 cells; read-out: half-effective concentration (EC50), SARS-CoV infection.
In a further series the test system is NS5A, HSP70, HCV virions. The settings on record: Ref. [41].
A further series has as its target Envelope protein, 2 (Hepatitis C virus genotype 1a, UniProt P26664). As to conditions: HCV Envelope protein 2, Ref. [41].
The next series deals with Phosphoprotein P. As to conditions: Ref. [32]; for Molecular Mechanisms: viral replication: RSV.
The test system of series [1] is Dengue virus type 2 (DENV-2). As to conditions: Vero cells.
A further series has as its system human coronavirus OC43. As to conditions: at a concentration of 60 μg/mL.
The subject of the next series is cytomegalovirus. The settings on record: inoculated HeLa cells; read-out: half inhibitory concentration (IC50), replication of cytomegalovirus.
The test system of another series is bovine coronavirus NCDCV. As to conditions: at a concentration of 60 μg/mL.
Another series deals with Influenza virions. The settings on record: Influenza A/WS/33, Ref. [37].
The next series relates to PEDV. The settings on record: Vero cells.
In a further series the test system is Vero cells. The settings on record: PEDV study.
The target of a further series is Reverse transcriptase (Human immunodeficiency virus type 1 group M subtype B, UniProt P04585). The settings on record: Refs. [43], [31].
The next series addresses NTCP receptor (Homo sapiens, UniProt Q14973).

≈ marks a conversion by molar mass, not a printed value. Where two headings read alike, the source gives them in different places.

NS3 protease, sequence (P26664 1027-1657): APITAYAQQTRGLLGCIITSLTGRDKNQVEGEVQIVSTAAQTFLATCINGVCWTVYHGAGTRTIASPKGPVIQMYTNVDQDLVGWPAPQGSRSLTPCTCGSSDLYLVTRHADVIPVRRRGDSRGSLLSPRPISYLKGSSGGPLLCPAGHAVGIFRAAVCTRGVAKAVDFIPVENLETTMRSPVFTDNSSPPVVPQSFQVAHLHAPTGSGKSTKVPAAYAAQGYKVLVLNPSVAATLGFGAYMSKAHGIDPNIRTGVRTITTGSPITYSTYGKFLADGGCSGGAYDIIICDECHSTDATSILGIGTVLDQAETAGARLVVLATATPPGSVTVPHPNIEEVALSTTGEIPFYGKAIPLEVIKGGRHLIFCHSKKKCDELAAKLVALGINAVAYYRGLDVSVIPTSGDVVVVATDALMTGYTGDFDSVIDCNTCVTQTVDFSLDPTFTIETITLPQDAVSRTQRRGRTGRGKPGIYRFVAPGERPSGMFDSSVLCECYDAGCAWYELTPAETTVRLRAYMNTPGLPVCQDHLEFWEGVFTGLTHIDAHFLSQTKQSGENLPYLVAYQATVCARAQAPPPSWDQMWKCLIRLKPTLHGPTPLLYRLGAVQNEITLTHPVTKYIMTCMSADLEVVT
NS3 protease, sequence (P26664 1658-1711): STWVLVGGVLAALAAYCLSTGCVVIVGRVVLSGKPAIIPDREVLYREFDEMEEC
NS5B polymerase, sequence (P26664 2421-3011): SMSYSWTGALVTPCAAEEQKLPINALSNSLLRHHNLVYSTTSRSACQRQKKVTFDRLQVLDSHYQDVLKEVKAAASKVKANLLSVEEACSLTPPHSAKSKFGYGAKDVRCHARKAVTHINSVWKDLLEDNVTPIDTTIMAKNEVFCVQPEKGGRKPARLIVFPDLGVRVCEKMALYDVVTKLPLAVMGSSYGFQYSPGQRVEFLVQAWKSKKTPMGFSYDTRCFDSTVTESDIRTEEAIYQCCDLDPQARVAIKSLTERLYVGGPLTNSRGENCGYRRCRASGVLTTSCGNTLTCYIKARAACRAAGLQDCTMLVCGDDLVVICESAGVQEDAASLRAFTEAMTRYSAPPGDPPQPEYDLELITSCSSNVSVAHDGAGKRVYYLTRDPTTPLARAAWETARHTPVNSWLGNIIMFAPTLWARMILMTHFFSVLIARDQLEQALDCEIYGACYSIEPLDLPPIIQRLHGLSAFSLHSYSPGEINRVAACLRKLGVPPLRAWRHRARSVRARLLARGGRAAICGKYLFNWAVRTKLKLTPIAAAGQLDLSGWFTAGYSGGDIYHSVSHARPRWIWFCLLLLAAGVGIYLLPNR
Envelope protein, 2, sequence (P26664 384-746): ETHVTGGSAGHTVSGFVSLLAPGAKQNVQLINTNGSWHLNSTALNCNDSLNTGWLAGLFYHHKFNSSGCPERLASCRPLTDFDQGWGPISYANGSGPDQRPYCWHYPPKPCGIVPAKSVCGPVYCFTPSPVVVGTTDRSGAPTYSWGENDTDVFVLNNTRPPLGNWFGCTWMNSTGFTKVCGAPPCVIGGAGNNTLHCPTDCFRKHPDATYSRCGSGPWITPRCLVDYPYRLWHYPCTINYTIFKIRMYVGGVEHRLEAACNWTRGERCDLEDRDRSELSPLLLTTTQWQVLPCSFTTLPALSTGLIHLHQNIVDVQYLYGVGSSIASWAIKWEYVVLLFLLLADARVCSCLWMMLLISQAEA
NTCP receptor, sequence (Q14973 whole entry): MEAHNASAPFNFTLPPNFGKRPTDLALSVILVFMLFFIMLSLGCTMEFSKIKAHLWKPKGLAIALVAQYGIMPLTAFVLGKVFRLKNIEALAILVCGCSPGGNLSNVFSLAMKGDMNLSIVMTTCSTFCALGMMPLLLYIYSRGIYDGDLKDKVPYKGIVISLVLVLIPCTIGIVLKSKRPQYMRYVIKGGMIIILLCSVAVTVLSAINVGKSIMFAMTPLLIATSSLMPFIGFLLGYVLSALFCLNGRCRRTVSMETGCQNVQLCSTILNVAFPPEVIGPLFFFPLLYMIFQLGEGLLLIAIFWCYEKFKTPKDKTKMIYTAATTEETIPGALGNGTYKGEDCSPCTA

Take `O=c1cc(-c2ccc(O)cc2)oc2cc(O[C@@H]3O[C@H](CO)[C@@H](O)[C@H](O)[C@H]3O)cc(O)c12` [Apigenin-7-O-glucoside]: the “Molecular Mechanisms: viral replication” value in the series on Rotavirus virions was “Inhibition viral”.
As for `O=c1cc(-c2ccc(O)cc2)oc2cc(O)cc(O)c12` [Apigenin], the “Molecular Mechanisms: HCV replication” value is on record as “Inhibition HCV” in the series on HCV replicase and “Inhibition of HCV” at NS3 protease.
Turning to `O=C(O)[C@H]1O[C@@H](Oc2cc3oc(-c4ccccc4)cc(=O)c3c(O)c2O)[C@H](O)[C@@H](O)[C@@H]1O` [Baicalin], in the series with DENV-2 virions, the “Molecular Mechanisms: viral replication” value is “Inhibition of viral replication,” and the “Molecular Mechanisms: viricidal activity” value is reported as “Viricidal activity”.
For `O=C1c2c(O)cc(O)cc2OC(c2ccc(O)cc2)C1C1C(=O)c2c(O)cc(O)cc2OC1c1ccc(O)cc1` (stereo not drawn) [Chamaejasmin], the “Molecular Mechanisms: NS1 glycosylation” value at NS1 is recorded as “Inhibition of NS1 glycosylation”.
Regarding `CC1O[C@@H](OC[C@H]2OC(Oc3cc4c(O)cc(O)cc4[o+]c3-c3cc(O)c(O)c(O)c3)[C@H](O)C(O)C2O)C(O)C(O)[C@H]1O` (stereo partly drawn) [Delphinidin-3-rutinoside], in the series with NOX4, the “Molecular Mechanisms: HSV-1 replication” value is recorded as “Inhibition of HSV-1”.
With `O=c1c(O)c(-c2ccc(O)cc2)oc2cc(O[C@@H]3O[C@H](CO)[C@@H](O)[C@H](O)[C@H]3O)cc(O)c12` [Kaempferol-7-O-glucoside], on HIV protease, the “Molecular Mechanisms: virion production” value is “Inhibition virion production”.
Broadly, the CC50 is the concentration that lowers cell viability or growth by half. Regarding `O=c1cc(-c2ccc(O)c(O)c2)oc2cc(O)cc(O)c12` [Luteolin], the CC50 in the series on Vero E6 cells was 155 µM. Moreover, the figures for the “Molecular Mechanisms: HCV replication” value at NS5B polymerase and in the series with HCV replicase were “Inhibition of HCV” and “Inhibition HCV”, respectively. The EC50 in the series on SARS-CoV is 10.6 µM.
Take `O=C1C[C@@H](c2ccc(O)cc2)Oc2cc(O)cc(O)c21` [Naringenin]: in the series on NS5A, HSP70, HCV virions, the “Molecular Mechanisms: viral translation” value is on record as “Inhibition Of viral” and the “Molecular Mechanisms: virion assembly” value is “Inhibition of virion”. The “Molecular Mechanisms: virion assembly” value on Envelope protein, 2 was “Inhibition of virion assembly,”.
As for `COc1ccc(-c2cc(=O)c3c(OC)c(OC)c(OC)c(OC)c3o2)cc1OC` [Nobiletin], in the series with Phosphoprotein P, the “Molecular Mechanisms: viral replication” value was “Inhibition of viral replication,” and the “Molecular Mechanisms: RSV entry into cells” value is “Inhibition of RSV entry into cells”.
Take `O=c1c(O)c(-c2ccc(O)c(O)c2)oc2cc(O)c(O)c(O)c12` [Quercetagetin]: the “Molecular Mechanisms: RNA binding to NS5B” value at NS5B polymerase (HCV, Ref. [39]) was “Inhibition of RNA binding to NS5B”.
For `O=c1c(O)c(-c2ccc(O)c(O)c2)oc2cc(O)cc(O)c12` [Quercetin, 2-(3,4-dihydroxyphenyl)-3,5,7-trihydroxy-4H-1 benzopyran-4-one], the CC50 in the series with Vero E6 cells (read-out: cytotoxicity CC50, Vero E6 cells) was 3320 µM. Further, the “DENV-2 ribonucleic acid (RNA) reduction” value in series [1] is listed as 67%. In addition, the “IC50, DENV-2 replication” value in series [1] is 35.7 µg/mL (≈ 118 µM). Moreover, the “Molecular Mechanisms: HCV replication” value at NS5B polymerase was “Inhibition of HCV”; on NS3 protease it was “HCV NS3 protease Inhibition of HCV replication,”. The “reduced infectivity of human coronavirus OC43” value in the series on human coronavirus OC43 is recorded as 50%. In addition, the “Molecular Mechanisms: viral translation” value in the series with NS5A, HSP70, HCV virions is “Inhibition Of viral”. Further, the “Molecular Mechanisms: virion assembly” value with NS5A, HSP70, HCV virions was “Inhibition of virion”; at Envelope protein, 2, “Inhibition of virion assembly,”. Further, in the series with cytomegalovirus, the IC50 was 3.2 ± 0.8 µM. For the same compound, the “reduced infectivity of bovine coronavirus NCDCV” value in the series with bovine coronavirus NCDCV was 50%. Besides, the “Molecular Mechanisms: virion production” value on NS3 protease (HCV NS3 protease) is “Inhibition of virion production”.
In the case of `C[C@@H]1O[C@@H](Oc2c(-c3ccc(O)c(O)c3)oc3cc(O)cc(O)c3c2=O)[C@H](O)[C@H](O)[C@H]1O` [Quercetin-3-rhamnoside], the “Molecular Mechanisms: virus infection” value with Influenza virions is “Inhibition of virus infection”.
For the compound `COc1ccc(-c2cc(=O)c3c(OC)c(OC)c(OC)c(OC)c3o2)cc1` [Tangeretin], in the series on Phosphoprotein P, the “Molecular Mechanisms: viral replication” value is listed as “Inhibition of viral replication,” and the “Molecular Mechanisms: RSV entry into cells” value is recorded as “Inhibition of RSV entry into cells”.
As to `C[C@@H]1O[C@@H](Oc2cc(O)c3c(=O)c(O)c(-c4ccc(O)c(O)c4)oc3c2)[C@H](O)[C@H](O)[C@H]1O` [quercetin 7-O-rhamnoside], the “IC50, PEDV replication” value in the series on PEDV was 0.014 µg/mL (≈ 0.0312 µM). Also, in the series on Vero cells, the “50% cytotoxicity concentration (CC50)” value was 100 µg/mL.
As to `CC(C)=CC[C@@]12Oc3cc(O)c([C@H]4C=C(C)C[C@H](c5ccc(O)cc5O)[C@H]4C(=O)c4ccc(O)cc4O)c(O)c3C(=O)[C@]1(O)Oc1cc(O)ccc12` [sanggenon O], at NS1, the “Molecular Mechanisms: NS1 glycosylation” value was “Inhibition of NS1 glycosylation”.
As for Catechin, in the series on NS5A, HSP70, HCV virions, the “Molecular Mechanisms: viral translation” value is “Inhibition Of viral” and the “Molecular Mechanisms: virion assembly” value is “Inhibition of virion”.
For the compound epigallocatechin-3-gallate [EGCG], the “Molecular Mechanisms: HIV replication” value on Reverse transcriptase is “Inhibition of HIV”. Besides, on NS1, the “Molecular Mechanisms: NS1 glycosylation” value is given as “Inhibition of NS1 glycosylation”. Further, the “Molecular Mechanisms: virion production” value at HIV protease was “Inhibition virion production”. In addition, at NTCP receptor, the “Molecular Mechanisms: HBV entry into cells” value is recorded as “Inhibition of HBV entryinto”.
